Measured values: paper PMC8080620, “Coiled-coil heterodimers with increased stability for cellular regulation and sensing SARS-CoV-2 spike protein-mediated cell fusion” (Scientific Reports, 2021)
Structures can show the parent of a compound that is named as a salt.

What was measured:
[1] = system: SARS-CoV-2 S protein-mediated cell–cell fusion; assay type: cell-based, human
[2] = CD thermal denaturation scans (midpoint Tm); assay type: physicochemical; settings: CC of the peptide with N8 compared with N8:N7
Description: CD measurements were performed with a ChiraScan instrument (Applied Photophysics, UK) equipped with a Peltier thermal control block (Melcor, NJ, Laird Technologies). The final concentrations of individual peptides were […] in Tris buffer (50 mM Tris–HCl, pH 7.5, 150 mM NaCl, and 1 mM TCEP). The mixture also contained a 20 μM concentration of each peptide. All experiments were performed in a quartz cuvette (Hellma, Germany) with a path length of 1 mm. CD spectra were measured every 1 nm from 200 to 280 nm with a bandwidth of 1 nm and 0.5 s integration time. The results are the average of three scans. Temperature denaturation scans were performed by measuring the CD signal at 222 nm from 0 to 95 °C in 1 °C increments at a rate of 1 °C/min. The actual sample temperatures were measured directly in the cuvette using a temperature probe. The CD spectrum was measured at 95 °C and at 20 °C after rapid cooling.

[3] = system: reconstituted CC-split luciferase in HEK293T cells; assay: CC-split luciferase displacement by externally added synthetic displacer peptide; assay type: cell-based, human; settings: for Displacement of cognate peptide from the N8:N7 split luciferase by added synthetic peptide: nLuc:N8 and cLuc:N7, peptide 0–50 µM in DOTAP for 2 h (Fig. S6B)
[4] = system: CC-split transcription factor (TALE-A:CC with CC:VP16) in HEK293T cells; assay: CC-split transcription factor reconstitution and displacement (TALE10x-Pmin-fLuc reporter); assay type: cell-based, human; settings: TALE-A:N8 with CC:VP16, displacer plasmid 0-50 or 0–70 ng, 48 h after transfection
[5] = system: reconstituted CC-split luciferase in HEK293T cells; assay: CC-split luciferase attenuation by co-expressed displacer peptide; assay type: cell-based, human
[6] = SEC-MALS multimerization state; assay type: physicochemical; settings: peptides 200 µM in 50 mM Tris–HCl pH 7.5, 150 mM NaCl, 10% glycerol
Description: A Waters e2695 HPLC system coupled with a 2489 UV detector (Waters, MA) and a Dawn 8 + multiple-angle light scattering detector (Wyatt, CA) was used for SEC-MALS experiments. Peptides (200 μM in 50 mM Tris–HCl with a pH of 7.5, 150 mM NaCl, and 10% glycerol) were filtered using Durapore 0.1 μm centrifuge filters (Merck Millipore, Ireland) before being injected onto the Biosep SEC-S2000 column (Phenomenex, CA), with the exception of the peptide N2, which was injected in a Superdex 30 increase column (GE, IL). The mobile phases used for the separations were 50 mM Tris–HCl, pH 7.5, 150 mM NaCl and 50 mM Tris–HCl, pH 7.5, 500 mM NaCl for the Biosep SEC-S2000 column and the Superdex 30 increase column, respectively. The injection volume was 50 μl, and the flow rate was 0.5 ml/min. Data analysis was carried out with Astra 7.0 software (Wyatt, CA) utilizing the theoretical extinction coefficient calculated by ProtParam.

[7] = molecular target: T1, P6A (synthetic construct, N-terminal acetylation; C-terminal amidation); assay: ITC
T1 chain: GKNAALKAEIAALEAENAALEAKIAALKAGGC

[8] = molecular target: T2, P6A (N-terminal acetylation; C-terminal amidation); assay: CD thermal denaturation; 20 µM each peptide; CD signal at 222 nm, 0 to 95 °C; 50 mM Tris-HCl pH 7.5, 150 mM NaCl, 1 mM TCEP; midpoint Tm from a thermodynamic model fit; settings: both partners purified
T2 chain: T1 chain

[9] = molecular target: the molecule itself; assay: SEC-MALS; peptides 200 µM, alone or as equimolar mixture; Biosep SEC-S2000 column; 50 mM Tris-HCl pH 7.5, 150 mM NaCl
[10] = molecular target: T3, P8A (synthetic construct, N-terminal acetylation; C-terminal amidation); assay: ITC
T3 chain: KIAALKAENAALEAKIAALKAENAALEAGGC

[11] = molecular target: T4, P8A (N-terminal acetylation; C-terminal amidation); assay: CD thermal denaturation; 20 µM each peptide; CD signal at 222 nm, 0 to 95 °C; 50 mM Tris-HCl pH 7.5, 150 mM NaCl, 1 mM TCEP; midpoint Tm from a thermodynamic model fit; settings: both partners purified
T4 chain: T3 chain

[12] = molecular target: T5, N8 (synthetic construct, N-terminal acetylation; C-terminal amidation); assay: ITC
T5 chain: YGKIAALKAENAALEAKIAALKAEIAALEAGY

[13] = molecular target: T6, N6 (synthetic construct, N-terminal acetylation; C-terminal amidation); assay: ITC
T6 chain: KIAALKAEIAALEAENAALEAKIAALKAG

CN(C)C(=O)COC(=O)Cc1ccc(OC(=O)c2ccc(NC(=N)N)cc2)cc1 [Camostat, camostat mesylate]
Syncytia formation, luciferase activity of mixture of donor and acceptor cells [1]: reduced the amount of formed syncytia

EIQQLEE KNSQLKQ EISQLEE KNQELKY G [P7SN, reference compound]
midpoint Tm of N-P-CCs lower than N-CCs [2]: more than 10 °C
Displacement of cognate peptide from the N8:N7 split luciferase by added synthetic peptide ([3]; HEK293T): failed to displace the cognate peptide from the N8:N7 split luciferase as efficiently

SPED EIQALEE KNAQLKQ EIAALEE KNQALKY G [P7, reference compound]
midpoint Tm of N-P-CCs lower than N-CCs [2]: more than 10 °C
Displacement of cognate peptide from the N8:N7 split luciferase by added synthetic peptide ([3]; HEK293T): failed to displace the cognate peptide from the N8:N7 split luciferase as efficiently
Attenuation of CC-split transcription activator assembly by co-expressed NLS-tagged CC-displacer peptide [4]: failed to prevent the reconstitution of a functional transcription as efficiently

Y EIAALEA KIAALKA KNAALKA EIAALEA GC [N5]
Displacement of cLuc:P5 from the N6:P5 split luciferase by added synthetic peptide ([3]; HEK293T, nLuc:N6 and cLuc:P5, […]): effectively displaced cLuc:P5
N6:P5 split luciferase activity with co-expressed displacer peptide [5]: attenuated N6:P5 split luciferase activity

Y EIAALEA KNAALKA EIAALEA KIAALKA GC [N7]
Luciferase activity of CC-split luciferase after addition of synthetic CC-displacer peptide ([3]; […], peptide in DOTAP for 2 h, 48 h after transfection): debilitated CC-split luciferase assembly most efficiently
Competition of co-expressed displacer peptide with N8:N7 CC split luciferase ([5]; HEK293T, plasmid expressing displacer 0, 80, 155 ng, 48 h after transfection): failed to effectively compete
Attenuation of CC-split transcription activator assembly by co-expressed NLS-tagged CC-displacer peptide [4]: weakened the transcription activator assembly most efficiently

YG EIAALEA KNAALKA EIAALEA KNAALKA GC [P7A]
midpoint Tm of N-P-CCs lower than N-CCs [2]: more than 10 °C
Multimerization state in solution [6]: monomers
Displacement of cognate peptide from the N8:N7 split luciferase by added synthetic peptide ([3]; HEK293T): failed to displace the cognate peptide from the N8:N7 split luciferase as efficiently
Attenuation of CC-split transcription activator assembly by co-expressed NLS-tagged CC-displacer peptide [4]: failed to prevent the reconstitution of a functional transcription as efficiently

YG ENAALEA KIAALKA KNAALKA EIAALEA GC [P5A]
Multimerization state in solution [6]: monomers

YG KIAALKA ENAALEA KIAALKA ENAALEA GGC [P8A]
Multimerization state in solution [6]: monomers

YG KNAALKA EIAALEA ENAALEA KIAALKA GGC [P6A]
Multimerization state in solution [6]: monomers

B1: P5A (peptide)
chain: Ac-ENAALEAKIAALKAKNAALKAEIAALEA-NH2
Kd [7]: 4 nM
Tm [8]: 57 °C

B2: N6 (peptide)
chain: Ac-KIAALKAEIAALEAENAALEAKIAALKAG-NH2
stoichiometry N [9]: 2

B3: P7A (peptide)
chain: Ac-GEIAALEAKNAALKAEIAALEAKNAALKAGC-NH2
Kd [10]: 19 nM
Tm [11]: 64 °C

B4: N7 (peptide)
chain: Ac-GEIAALEAKNAALKAEIAALEAKIAALKAGY-NH2
Kd [12]: 10 nM
stoichiometry N [9]: 2

B5: N5 (peptide)
chain: Ac-GEIAALEAKIAALKAKNAALKAEIAALEAGY-NH2
Kd [13]: 1 nM
stoichiometry N [9]: 2

B6: N8 (peptide)
chain: Ac-YGKIAALKAENAALEAKIAALKAEIAALEAGY-NH2
stoichiometry N [9]: 2
